Measured values from patent US20250213583A1, “ANTIVIRAL PHARMACEUTICAL COMPOSITION AND USE THEREOF” (priority 2022, published 2025).

Columns and labels:
[1] = test system: SARS-CoV-2 BA.1 (omicron); assay: microbe, parasite or virus in culture; type: cell-based
SARS-CoV-2 B.1 [2] = assay: Plaque assay, hACE2-A549 cells infected with SARS-CoV-2 B.1; type: cell-based; conditions: hACE2-A549, MOI=0.1, 30 μM, 24 hpi
MFN1 and MFN2 = assay: Western blot of mitochondrial fusion factors, SARS-CoV-2 B.1-infected Calu-3 cells; type: cell-based; conditions: SARS-CoV-2 B.1-infected Calu-3, 24 hpi
[3] = test system: SARS-CoV-2 B.1 nucleocapsid protein; assay: Western blot of nucleocapsid protein, hACE2-A549 cells infected with SARS-CoV-2 B.1; type: cell-based; conditions: hACE2-A549, MOI=0.1, 24 hpi
Method: (§1) Vero E6 cells, Calu-3 cells (1×10^6 cells per well), and hACE2-A549 cells (0.5×10^6 cells per well) were seeded in 6-well plates and placed in an incubator at 37° C. and 5% CO2 conditions overnight. When the cells reached approximately 80% density, they were washed twice with pre-heated phosphate-buffered saline (PBS; Gibco™ cat #70011069), 1 mL of 2% FBS medium was added, and the cells were infected at the following multiplicity of infection [MOI] values at 37° C. for two hours (MOI=0.01 for Vero E6 cells, MOI=0.1 for hACE2-A549 cells, and MOI=1 for Calu-3 cells). The infected plate was shaken every 15 minutes to efficiently distribute the infectious material. After two hours of virus adsorption, Example Compound 1 was administered. Next, the supernatants and cells were harvested at 24 hours post infection (hpi).
(§2) Cells were lysed using a radioimmunoprecipitation assay (RIPA) buffer (Cell Signaling Technology® cat #9806) and a protease/phosphatase inhibitor mixture (Cell Signaling Technology®, cat #5872). […]
(§3) The gels were transblotted using polyvinylidene difluoride (PVDF) membranes (Millipore Ltd., cat #617203) at 30 V for 90 minutes. […] The antibody-treated PVDF membrane was detected with a horseradish peroxidase (HRP) substrate (EMD Millipore Corporation) using VILBER (FUSION Solo S instrument). […]

[4] = test system: SARS-CoV-2 B.1 nucleocapsid protein; assay: Western blot of nucleocapsid protein, Vero E6 cells infected with SARS-CoV-2 B.1; type: cell-based; conditions: Vero E6, MOI=0.01, 30, 20, 10, 1 μM, 24 hpi
Method: as §1, §2, §3

[5] = test system: p-MLKL and cleaved caspase-3; assay: Western blot of cell death factors, SARS-CoV-2 B.1-infected hACE2-A549 cells; type: cell-based, human; conditions: SARS-CoV-2 B.1-infected hACE2-A549, MOI 0.1, 30 μM, 48 hpi
Method: Cells were lysed using a radioimmunoprecipitation assay (RIPA) buffer (Cell Signaling Technology® cat #9806) and a protease/phosphatase inhibitor mixture (Cell Signaling Technology®, cat #5872). The lysed cells were electrophoresed on 12% and 15% acrylamide gels using sodium dodecyl sulfate polyacrylamide gels at 80 to 120 V for 90 minutes.
The gels were transblotted using polyvinylidene difluoride (PVDF) membranes (Millipore Ltd., cat #617203) at 30 V for 90 minutes. Proteins were transferred to a PVDF membrane and blocked at room temperature for one hour using Tris-buffered saline (TBS) and 0.1% Tween-20 (TBS-T, Bio-Rad Laboratories, Inc., cat #1706531) and 5% skim milk. […] The antibody-treated PVDF membrane was detected with a horseradish peroxidase (HRP) substrate (EMD Millipore Corporation) using VILBER (FUSION Solo S instrument). […]

[6] = test system: Nrf2 signaling pathway (HMOX1, Nqo1); assay: Nrf2 signaling pathway gene expression (mRNAseq DEG, RT-qPCR) in SARS-CoV-2 B.1-infected hACE2-A549 cells; type: cell-based, human; conditions: SARS-CoV-2 B.1-infected hACE2-A549, MOI 0.1, 30 μM, 24 hpi
hACE2-A549 cells = assay: Mitochondrial membrane potential by JC-1 staining, SARS-CoV-2 B.1-infected hACE2-A549 cells; type: cell-based, human; conditions: SARS-CoV-2 B.1-infected hACE2-A549, 30 μM, 24 hpi
Method: JC-1 is a marker for mitochondrial membrane potential, and appears as a green fluorescent monomer (˜529 nm) at depolarization and abnormal mitochondrial membrane potential. JC-1 was diluted to 10 mM, and the JC-1 solution was treated at a final concentration of 2 μM in serum-free DMEM for 20 minutes at 37° C. and 5% CO2. Control cells were treated with H2O2 for 20 minutes. After JC-1 staining, nuclei were stained using Hoechst 33342 (Thermo Fisher Scientific, cat #62249) for five minutes at room temperature. After each staining step, cells were washed three times with pre-heated PBS and mounted on a glass slide. All steps were carried out with light blocked.
To evaluate mitochondrial homeostasis by treatment with Example Compound 1, hACE2-A549 cells and Calu-3 cells were infected with SARS-CoV-2 B.1 virus at MOI=0.1 and 1. After two hours, the cells were treated with Example Compound 1 at 30 μM, and JC-1 and MitoTracker staining of the hACE2A-549 cells and Calu-3 cells was performed at 24 hpi.

SARS-CoV-2 B.1 [7] = assay: RT-qPCR of viral RNA, Vero E6 cells infected with SARS-CoV-2 B.1; type: cell-based
Zika virus (ZIKV) = assay: microbe, parasite or virus in culture; type: cell-based
Calu-3 cells = assay: Mitochondrial membrane potential by MitoTracker Orange CMTMRos and IFA, SARS-CoV-2 B.1-infected Calu-3 cells; type: cell-based; conditions: SARS-CoV-2 B.1-infected Calu-3, 30 μM, 24 hpi
Method: Mitochondrial membrane potential probes MitoTracker™ Orange CMTMRos (Invitrogen™ cat #M7510) and JC-1 (Thermo Fisher Scientific, cat #T3168) were used to measure the recovery of mitochondrial membrane potential. Mitotracker™MOrange CMTMRos is a fluorescent dye that stains mitochondria in living cells and can be observed under a confocal microscope at a wavelength of 554 to 576 nm.
Calu-3 cells were seeded on a 4-chamber slide, infected with a virus and treated with Example Compound 1, and then treated with Mitotracker™MOrange CMTMRos at a final concentration of 500 nM in serum-free DMEM for 20 minutes at 37° C. and 5% CO2. Control cells were treated with carbonyl cyanide-p-trifluoromethoxyphenylhydrazone (FCCP) for 20 minutes. All steps were carried out with light blocked, the 4-chamber slide was washed three times with pre-heated PBS, and an immunofluorescence analysis (IFA) was performed.
To evaluate mitochondrial homeostasis by treatment with Example Compound 1, hACE2-A549 cells and Calu-3 cells were infected with SARS-CoV-2 B.1 virus at MOI=0.1 and 1. […]
In addition, after infecting the Calu-3 cells with SARS-CoV-2, the membrane potential of the infected cells was measured using MitoTracker™ Orange CMTMRos and IFA, and the results are shown in FIG. 5C.

[8] = test system: SARS-CoV-2 B.1.617.2 (delta); assay: microbe, parasite or virus in culture; type: cell-based
Seoul virus (SEOV) = assay: microbe, parasite or virus in culture; type: cell-based
vaccinia virus (VACV) = assay: microbe, parasite or virus in culture; type: cell-based
[9] = test system: interferon signaling and pro-inflammatory cytokine genes (Ifnβ, Ifit1, Ifit2, Il-6, Tnfα); assay: Inflammatory cytokine gene expression (mRNAseq DEG, RT-qPCR) in SARS-CoV-2 B.1-infected hACE2-A549 cells; type: cell-based, human
SARS-CoV-2 B.1 [10] = assay: Plaque assay, Vero E6 cells infected with SARS-CoV-2 B.1; type: cell-based; conditions: Vero E6, MOI=0.01, 30 μM, 24 hpi
[11] = test system: mitochondrial OXPHOS complexes I, II, III, IV, and V; assay: Mitochondrial OXPHOS complex expression (mRNAseq DEG) in SARS-CoV-2 B.1-infected hACE2-A549 cells; type: cell-based, human; conditions: SARS-CoV-2 B.1-infected hACE2-A549, MOI 0.1, 30 μM, 24 hpi
SARS-CoV-2 B.1 [12] = assay: RT-qPCR of viral RNA, hACE2-A549 cells infected with SARS-CoV-2 B.1; type: cell-based; conditions: for EC50: read-out: EC50 against the SARS-CoV-2 B.1 virus; for inhibited the replication of SARS-CoV-2 B.1 (RT-qPCR): 24 hpi
[13] = Severe acute respiratory syndrome coronavirus 2
[14] = SARS-CoV-2 B.1-infected hACE2-A549, 30 μM and 1 μM

SMILES: O=S1(=O)CCN(Cc2cc(NC3CCOCC3)c3[nH]c(-c4ccccc4)cc3c2)CC1 [Example Compound 1, 5-[(1,1-dioxido-4-thiomorpholinyl)methyl]-2-phenyl-N-(tetrahydro-2H-pyran-4-yl)-1H-indol-7-amine]
- antiviral effect against SARS-CoV-2 BA.1 (omicron) (RT-qPCR) [1]: ~30 fold
- EC50 [1, 13]: 1.1 µM
- infectious particles of SARS-CoV-2 B.1 reduced (plaque assay) (SARS-CoV-2 B.1 [2]): 100 fold
- MFN1 and MFN2 protein level (Western blot) (MFN1 and MFN2): overexpression was suppressed
- expression of SARS-CoV-2 B.1 nucleocapsid protein (Western blot) [3]: decreased in a dose-dependency
- expression of SARS-CoV-2 B.1 nucleocapsid protein (Western blot) [4]: decreased in a dose-dependency
- necrosis-related p-MLKL protein and cell death-related cCaspase 3 protein (Western blot) [5]: inhibited
- Nrf2 signaling pathway (mRNAseq, DEG) [6]: up-regulated
- gene expression of HMOX1 and Nqo1 (RT-qPCR), compared to untreated infected cells [6]: significant increase
- mitochondrial membrane potential (JC-1 Aggregate, RED) intensity (hACE2-A549 cells): intensity level similar to that of the uninfected cells
- EC50 (SARS-CoV-2 B.1 [7]; Severe acute respiratory syndrome coronavirus 2, Vero C1008, Vero E6, MOI=0.01, 24 hpi, read-out: EC50 against SARS-CoV-2 B.1): 1.1 µM
- SARS-CoV-2 B.1 virus replication inhibited compared to untreated cells (RT-qPCR) (SARS-CoV-2 B.1 [7]; Vero E6, MOI=0.01, 30 μM, 24 hpi): up to 1,000 times
- reduced the expression level of ZIKV (RT-qPCR) (Zika virus (ZIKV); Vero E6): about 16 times
- EC50 (Zika virus (ZIKV); Zika virus, Vero C1008, Vero E6, 48 hpi): 7.8 µM
- SARS-CoV-2 nucleocapsid protein (IFA) (Calu-3 cells): significant decrease
- mitochondrial membrane potential, MitoTracker accumulation (Calu-3 cells): accumulation of MitoTracker
- antiviral effect against SARS-CoV-2 B.1.617.2 (delta) (RT-qPCR) [8]: about 1000 fold
- EC50 [8, 13]: 1.2 µM
- EC50 (Seoul virus (SEOV); Orthohantavirus seoulense, Vero C1008, read-out: EC50, SEOV): 1.9 µM
- reduced the expression level of SEOV (RT-qPCR) (Seoul virus (SEOV); Vero E6, 24 hpi): about 3 times
- EC50 (vaccinia virus (VACV); Orthopoxvirus vaccinia, Vero C1008, read-out: EC50, VACV): 6.6 µM
- reduced the expression level of VACV (RT-qPCR) (vaccinia virus (VACV); Vero E6, 24 hpi): about 15 times
- expression of the interferon signaling and pro-inflammatory cytokine genes (mRNAseq, DEG) ([9]; SARS-CoV-2 B.1-infected hACE2-A549): inhibited the expression
- expression of interferon-related genes Ifnβ, Ifit1, and Ifit2 (RT-qPCR) [9, 14]: significantly down-regulated
- induction of pro-inflammatory cytokine genes Il-6 and Tnfα (RT-qPCR) [9, 14]: reduced the induction
- infectious particles of SARS-CoV-2 B.1 reduced compared to untreated cells (plaque assay) (SARS-CoV-2 B.1 [10]): 1,000 times
- expression of mitochondrial OXPHOS complexes I to V (mRNAseq, DEG) [11]: up-regulated expression of all five OXPHOS complexes
- EC50 (SARS-CoV-2 B.1 [12]; Severe acute respiratory syndrome coronavirus 2, hACE2-A549, MOI=0.01, 24 hpi): 1.4 µM
- EC50 (SARS-CoV-2 B.1 [12]; Severe acute respiratory syndrome coronavirus 2, hACE2-A549, MOI=0.1, 24 hpi): 7 µM
- inhibited the replication of SARS-CoV-2 B.1 (RT-qPCR) (SARS-CoV-2 B.1 [12]; hACE2-A549, MOI=0.01, 30 µM): about 100 times
- inhibited the replication of SARS-CoV-2 B.1 (RT-qPCR) (SARS-CoV-2 B.1 [12]; hACE2-A549, MOI=0.1, 30 μM): about 100 times
